Our source for the IC50 values is patent US9102678B2, “Compounds and methods for inhibiting mitotic progression” (Millennium Pharmaceuticals, Inc., priority 2004, dated 2015).

pIC50: −log10 of the molar value.

One assay deals with T1, recombinant murine Aurora A enzyme (Mus musculus, UniProt P97477).
T1 construct: hexahistidine (His6) (N); made in house; host or cells: insect cells, baculovirus (Bac-to-Bac, Invitrogen)
T1 sequence (P97477 whole entry): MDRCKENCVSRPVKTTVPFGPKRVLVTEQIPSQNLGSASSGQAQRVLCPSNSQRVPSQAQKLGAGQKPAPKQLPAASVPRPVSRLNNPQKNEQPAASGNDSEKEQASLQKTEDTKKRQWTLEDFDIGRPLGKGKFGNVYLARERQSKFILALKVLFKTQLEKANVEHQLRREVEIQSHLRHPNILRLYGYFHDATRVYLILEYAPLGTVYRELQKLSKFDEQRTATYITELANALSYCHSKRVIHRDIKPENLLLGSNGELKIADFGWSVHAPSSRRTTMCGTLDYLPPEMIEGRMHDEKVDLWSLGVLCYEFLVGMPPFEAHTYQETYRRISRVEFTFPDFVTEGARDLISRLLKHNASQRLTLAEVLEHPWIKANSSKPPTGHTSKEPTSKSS
In words: Aurora A DELFIA Kinase Assay. Type of assay: biochemical.
Conditions: not given
With `CC1N=C(c2c(F)cccc2F)c2cc(Cl)ccc2-c2nc(Nc3ccc(C(=O)O)cc3)ncc21` (stereo not drawn) [Compound I-371, 4-{[9-chloro-7-(2,6-difluorophenyl)-5-methyl-5H-pyrimido[5,4-d][2]benzazepin-2-yl]amino}benzoic acid], the pIC50 was at least 7.00.

The assay is the same for the next values; noted with them: mouse Aurora A, 250 μM ATP; threshold less than or equal to 100 nM; read-out: IC50.
Regarding `COc1ccccc1C1=NCc2cnc(Nc3ccc(C(=O)N4CCNC(C)C4)cc3)nc2-c2ccc(Cl)cc21` (stereo not drawn) [Compound I-329, 9-chloro-7-(2-methoxyphenyl)-N-{4-[(3-methylpiperazin-1-yl)carbonyl]phenyl}-5H-pyrimido[5,4-d][2]benzazepin-2-amine], the pIC50 is at least 7.00.
Still for that read-out and setting: the value for `COc1ccccc1C1=NCc2cnc(Nc3ccc(C(=O)N4CC(C)NC(C)C4)cc3)nc2-c2ccc(Cl)cc21` (stereo not drawn) [Compound I-330] was at least 7.00; that for `CNC1CCN(C(=O)c2ccc(Nc3ncc4c(n3)-c3ccc(Cl)cc3C(c3ccccc3OC)=NC4)cc2)CC1` [Compound I-331, 9-chloro-7-(2-methoxyphenyl)-N-(4-{[4-(methylamino)piperidin-1-yl]carbonyl}phenyl)-5H-pyrimido[5,4-d][2]benzazepin-2-amine] was at least 7.00.
`CNC1CCN(C(=O)c2ccc(Nc3ncc4c(n3)-c3ccc(Cl)cc3C(c3ccccc3OC)=NC4)cc2)C1` (stereo not drawn) [Compound I-332, 9-chloro-7-(2-methoxyphenyl)-N-(4-{[3-(methylamino)pyrrolidin-1-yl]carbonyl}phenyl)-5H-pyrimido[5,4-d][2]benzazepin-2-amine]: the pIC50 is at least 7.00.
Still for that read-out and setting: the value for `CNC1CCCN(C(=O)c2ccc(Nc3ncc4c(n3)-c3ccc(Cl)cc3C(c3ccccc3OC)=NC4)cc2)C1` (stereo not drawn) [Compound I-333, 9-chloro-7-(2-methoxyphenyl)-N-(4-{[3-(methylamino)piperidin-1-yl]carbonyl}phenyl)-5H-pyrimido[5,4-d][2]benzazepin-2-amine] was at least 7.00.
On to `CNC(=O)c1ccc(Nc2ncc3c(n2)-c2ccc(Cl)cc2C(c2c(F)cccc2F)=NC3)cc1` [Compound I-334, 4-{[9-chloro-7-(2,6-difluorophenyl)-5H-pyrimido[5,4-d][2]benzazepin-2-yl]amino}-N-methylbenzamide], for which the pIC50 was at least 7.00.
With `CC(=O)c1ccc(Nc2ncc3c(n2)-c2ccc(Cl)cc2C(c2c(F)cccc2F)=NC3)cc1` [Compound I-337, 1-(4-{[9-chloro-7-(2,6-difluorophenyl)-5H-pyrimido[5,4-d][2]benzazepin-2-yl]amino}phenyl)ethanone], the pIC50 was at least 7.00.
Same read-out and setting: the value for `NCC#Cc1cccc(Nc2ncc3c(n2)-c2ccc(Cl)cc2C(c2c(F)cccc2F)=NC3)c1` [Compound I-338, N-[3-(3-aminoprop-1-yn-1-yl)phenyl]-9-chloro-7-(2,6-difluorophenyl)-5H-pyrimido[5,4-d][2]benzazepin-2-amine] was at least 7.00.
Still for that read-out and setting: the value for `CNC(=O)C1(N)CCN(C(=O)c2ccc(Nc3ncc4c(n3)-c3ccc(Cl)cc3C(c3c(F)cccc3F)=NC4)cc2)CC1` [Compound I-341, 4-amino-1-(4-{[9-chloro-7-(2,6-difluorophenyl)-5H-pyrimido[5,4-d][2]benzazepin-2-yl]amino}benzoyl)-N-methylpiperidine-4-carboxamide] was at least 7.00; that for `CN(C)CC#Cc1cccc(Nc2ncc3c(n2)-c2ccc(Cl)cc2C(c2c(F)cccc2F)=NC3)c1` [Compound I-343, 9-chloro-7-(2,6-difluorophenyl)-N-{3-[3-(dimethylamino)prop-1-yn-1-yl]phenyl}-5H-pyrimido[5,4-d][2]benzazepin-2-amine] was at least 7.00; that for `NC(=O)C1(N)CCN(C(=O)c2ccc(Nc3ncc4c(n3)-c3ccc(Cl)cc3C(c3c(F)cccc3F)=NC4)cc2)CC1` [Compound I-350, 4-amino-1-(4-{[9-chloro-7-(2,6-difluorophenyl)-5H-pyrimido[5,4-d][2]benzazepin-2-yl]amino}benzoyl)piperidine-4-carboxamide] was at least 7.00.
Still for that read-out and setting: the value for `CNC1CN(C(=O)c2ccc(Nc3ncc4c(n3)-c3ccc(Cl)cc3C(c3c(F)cccc3Cl)=NC4)cc2)C1` [Compound I-351, 9-chloro-7-(2-chloro-6-fluorophenyl)-N-(4-{[3-(methylamino)azetidin-1-yl]carbonyl}phenyl)-5H-pyrimido[5,4-d][2]benzazepin-2-amine] was at least 7.00.
`COc1cccc(Nc2ncc3c(n2)-c2ccc(C(=O)O)cc2C(c2c(F)cccc2F)=NC3)c1` [Compound I-353, 7-(2,6-difluorophenyl)-2-[(3-methoxyphenyl)amino]-5H-pyrimido[5,4-d][2]benzazepine-9-carboxylic acid]: the negative logarithm of the IC50 (pIC50) is at least 7.00.
Same read-out and setting: in the case of `CNC(=O)c1csc(Nc2ncc3c(n2)-c2ccc(Cl)cc2C(c2c(F)cccc2F)=NC3)n1` [Compound I-355, 2-{[9-chloro-7-(2,6-difluorophenyl)-5H-pyrimido[5,4-d][2]benzazepin-2-yl]amino}-N-methyl-1,3-thiazole-4-carboxamide] it was at least 7.00.
Still for that read-out and setting: the value for `Cc1csc(Nc2ncc3c(n2)-c2ccc(C(=O)O)cc2C(c2c(F)cccc2F)=NC3)n1` [Compound I-357, 7-(2,6-difluorophenyl)-2-[(4-methyl-1,3-thiazol-2-yl)amino]-5H-pyrimido[5,4-d][2]benzazepine-9-carboxylic acid] was at least 7.00.
Still for that read-out and setting: in the case of `CN(C)CCC(=O)c1cccc(Nc2ncc3c(n2)-c2ccc(Cl)cc2C(c2c(F)cccc2F)=NC3)c1` [Compound I-359, 1-(3-{[9-chloro-7-(2,6-difluorophenyl)-5H-pyrimido[5,4-d][2]benzazepin-2-yl]amino}phenyl)-3-(dimethylamino)propan-1-one] it was at least 7.00.
On to `CC1CN(C(=O)c2csc(Nc3ncc4c(n3)-c3ccc(Cl)cc3C(c3c(F)cccc3F)=NC4)n2)CC(C)N1` (stereo not drawn) [Compound I-362, 9-chloro-7-(2,6-difluorophenyl)-N-{4-[(3,5-dimethylpiperazin-1-yl)carbonyl]-1,3-thiazol-2-yl}-5H-pyrimido[5,4-d][2]benzazepin-2-amine], for which the pIC50 was at least 7.00.
Still for that read-out and setting: the value for `C[C@@H]1CN(C(=O)c2csc(Nc3ncc4c(n3)-c3ccc(Cl)cc3C(c3c(F)cccc3F)=NC4)n2)CCN1` [Compound I-365, 9-chloro-7-(2,6-difluorophenyl)-N-(4-{[(3R)-3-methylpiperazin-1-yl]carbony}-1,3-thiazol-2-yl)-5H-pyrimido[5,4-d][2]benzazepin-2-amine] was at least 7.00; that for `C[C@@H]1CNCCN1C(=O)c1ccc(Nc2ncc3c(n2)-c2ccc(Cl)cc2C(c2c(F)cccc2F)=NC3)cc1` [Compound I-366, 9-chloro-7-(2,6-difluorophenyl)-N-(4-{[(2R)-2-methylpiperazin-1-yl]carbonyl}phenyl)-5H-pyrimido[5,4-d][2]benzazepin-2-amine] was at least 7.00; that for `CNC1CCN(C(=O)c2csc(Nc3ncc4c(n3)-c3ccc(Cl)cc3C(c3c(F)cccc3F)=NC4)n2)C1` (stereo not drawn) [Compound I-367, 9-chloro-7-(2,6-difluorophenyl)-N-(4-{[3-(methylamino)pyrrolidin-1-yl]carbonyl}-1,3-thiazol-2-yl)-5H-pyrimido[5,4-d][2]benzazepin-2-amine] was at least 7.00.
In the case of `O=C(O)c1coc(Nc2ncc3c(n2)-c2ccc(Cl)cc2C(c2c(F)cccc2F)=NC3)n1` [Compound I-368, 2-{[9-chloro-7-(2,6-difluorophenyl)-5H-pyrimido[5,4-d][2]benzazepin-2-yl]amino}-1,3-oxazole-4-carboxylic acid], the pIC50 was at least 7.00.
Same read-out and setting: the value for `CN(C)CCCc1cccc(Nc2ncc3c(n2)-c2ccc(Cl)cc2C(c2c(F)cccc2F)=NC3)c1` [Compound I-372, 9-chloro-7-(2,6-difluorophenyl)-N-{3-[3-(dimethylamino)propyl]phenyl}-5H-pyrimido[5,4-d][2]benzazepin-2-amine] was at least 7.00.
Still for that read-out and setting: the value for `NCCCc1cccc(Nc2ncc3c(n2)-c2ccc(Cl)cc2C(c2c(F)cccc2F)=NC3)c1` [Compound I-373, N-[3-(3-aminopropyl)phenyl]-9-chloro-7-(2,6-difluorophenyl)-5H-pyrimido[5,4-d][2]benzazepin-2-amine] was at least 7.00; that for `CC1CN(C(=O)c2coc(Nc3ncc4c(n3)-c3ccc(Cl)cc3C(c3c(F)cccc3F)=NC4)n2)CC(C)N1` (stereo not drawn) [Compound I-374, 9-chloro-7-(2,6-difluorophenyl)-N-[4-[(3,5-dimethylpiperazin-1-yl)carbonyl]-1,3-oxazol-2-yl]-5H-pyrimido[5,4-d][2]benzazepin-2-amine] was at least 7.00; that for `CNC1CCN(C(=O)c2coc(Nc3ncc4c(n3)-c3ccc(Cl)cc3C(c3c(F)cccc3F)=NC4)n2)C1` (stereo not drawn) [Compound I-375, 9-chloro-7-(2,6-difluorophenyl)-N-(4-{[3-(methylamino)pyrrolidin-1-yl]carbonyl}-1,3-oxazol-2-yl)-5H-pyrimido[5,4-d][2]benzazepin-2-amine] was at least 7.00.
Take `CNC(=O)c1ccc2c(c1)C(c1c(F)cccc1F)=NCc1cnc(Nc3ccc(C(=O)N4CC(C)NC(C)C4)cc3)nc1-2` (stereo not drawn) [Compound I-376, 7-(2,6-difluorophenyl)-2-({4-[(3,5-dimethylpiperazin-1-yl)carbonyl]phenyl}amino)-N-methyl-5H-pyrimido[5,4-d][2]benzazepine-9-carboxamide]: the pIC50 was at least 7.00.
